From ChEMBL document CHEMBL1147719, “Two novel aromatic valerenane-type sesquiterpenes from the Chinese green alga Caulerpa taxifolia” (Bioorg Med Chem Lett, 2006)

Molecular target: T1, Tyrosine-protein phosphatase non-receptor type 1 (Homo sapiens, UniProt P18031)
T1 sequence (P18031 whole entry): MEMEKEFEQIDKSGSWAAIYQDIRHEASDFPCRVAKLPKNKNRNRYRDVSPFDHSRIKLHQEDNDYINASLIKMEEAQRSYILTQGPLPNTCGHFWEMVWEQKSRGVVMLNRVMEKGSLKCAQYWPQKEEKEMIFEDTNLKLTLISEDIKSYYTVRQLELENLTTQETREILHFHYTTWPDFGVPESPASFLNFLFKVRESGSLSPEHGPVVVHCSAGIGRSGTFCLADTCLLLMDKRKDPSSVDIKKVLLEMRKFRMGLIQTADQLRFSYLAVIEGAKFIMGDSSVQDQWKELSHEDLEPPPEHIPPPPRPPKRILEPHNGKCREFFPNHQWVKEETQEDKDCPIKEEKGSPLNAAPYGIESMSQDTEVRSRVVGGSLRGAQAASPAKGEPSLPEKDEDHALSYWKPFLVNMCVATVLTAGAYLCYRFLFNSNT
Experiment: Inhibition of human PTP1B

Q: For COC(=O)/C1=C/c2c([nH]c3ccccc23)/C(C(=O)OC)=C\c2c1[nH]c1ccccc21 [CAULERPIN], which IC50 is on record?
A: 3.77 µM
